Laboratory results as given in the supplement of paper PMC10627819.

Columns and labels:
[1] = test system: S. pneumoniae D39V; assay: fitness (endpoint OD595 vs no drug) (fraction); higher = more growth
Summary of the method: (§1)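 Background-subtracted growth curves were the basis for fitness, taken as the optical density at entry into stationary phase over the robust mean of no-drug control wells. A cap of 1 was applied. The curves came from OD595 readings every 30 min for 14 h at 37 °C, in 384-well plates seeded at OD595 0.01 with 30 µl, or 55 µl for S. pneumoniae.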

[2] = test system: B. subtilis 168; assay: as above
Summary of the method: as §1

[3] = test system: S. aureus DSM 20231; assay: as above
Summary of the method: as §1

[4] = test system: S. aureus Newman; assay: Bliss interaction score (quartile over a dose matrix) (fitness difference); higher = more antagonism (negative = synergy)
Summary of the method: (§2)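 Growth in each well was taken as OD595 at entry into stationary phase. Dividing by the plate's robust no-drug mean and capping at 1 gave fitness, and single-drug fitness was inferred from the combination data. The Bliss score, observed minus product-expected fitness, is summarised by quartiles over technical, biological and donor/recipient replicates.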

[5] = test system: S. pneumoniae D39V; assay: as above
Summary of the method: as §2

[6] = test system: B. subtilis 168; assay: as above
Summary of the method: as §2

[7] = test system: S. aureus DSM 20231; assay: as above
Summary of the method: as §2
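Wherever Bliss interaction score (quartile over a dose matrix) is given: first quartile when negative (synergy) and third quartile when positive (antagonism).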

CCC[C@@H]1C[C@@H](C(=O)N[C@@H]([C@H]2O[C@H](SC)[C@H](O)[C@@H](O)[C@H]2O)[C@@H](C)O)N(C)C1 [Lincomycin] + CC1=C\[C@@H](O)CC(=O)Cc2nc(co2)C(=O)N2CCC=C2C(=O)O[C@H](C(C)C)[C@H](C)/C=C/C(=O)NC\C=C\1 [Virginiamycin M1]
fitness, one replicate
Settings | first compound 0.1 µg/mL | first compound 0.2 µg/mL | first compound 0.4 µg/mL | first compound 0.8 µg/mL
[1], partner 0.15 µg/mL | – | 0.807 | 0.694 | 0.596
[1], partner 0.3 µg/mL | – | 0.796 | 0.657 | 0.573
[1], partner 0.5 µg/mL | – | 0.8 | 0.761 | 0.449
[1], partner 1 µg/mL | – | 0.71 | 0.655 | 0.416
[3], partner 0.5 µg/mL | 0.878 | 0.66 | 0.3 | –
[3], partner 1 µg/mL | 0.7 | 0.486 | 0.238 | –

Settings | fitness
[1], first compound 0.2 µg/mL, partner 2 µg/mL | 0.731
[1], first compound 0.215 µg/mL, partner 0.5 µg/mL | 0.857
[1], first compound 0.215 µg/mL, partner 1 µg/mL | 0.882
[1], first compound 0.215 µg/mL, partner 2 µg/mL | 0.836
[1], first compound 0.4 µg/mL, partner 2 µg/mL | 0.642
[1], first compound 0.43 µg/mL, partner 0.5 µg/mL | 0.73
[1], first compound 0.43 µg/mL, partner 1 µg/mL | 0.781
[1], first compound 0.43 µg/mL, partner 2 µg/mL | 0.741
[1], first compound 0.8 µg/mL, partner 2 µg/mL | 0.333
[1], first compound 0.86 µg/mL, partner 0.5 µg/mL | 0.268
[1], first compound 0.86 µg/mL, partner 1 µg/mL | 0.207
[1], first compound 0.86 µg/mL, partner 2 µg/mL | 0.195
[2], first compound 0.1 µg/mL, partner 0.0625 µg/mL | 0.945
[2], first compound 0.1 µg/mL, partner 0.125 µg/mL | 0.936
[2], first compound 0.1 µg/mL, partner 0.25 µg/mL | 0.922
[2], first compound 0.2 µg/mL, partner 0.0625 µg/mL | 0.91
[2], first compound 0.2 µg/mL, partner 0.125 µg/mL | 0.925
[2], first compound 0.2 µg/mL, partner 0.25 µg/mL | 0.949
[2], first compound 0.4 µg/mL, partner 0.0625 µg/mL | 0.99
[2], first compound 0.4 µg/mL, partner 0.125 µg/mL | 0.871
[2], first compound 0.4 µg/mL, partner 0.25 µg/mL | 0.985
[3], first compound 0.1 µg/mL, partner 0.0625 µg/mL | 0.844
[3], first compound 0.1 µg/mL, partner 0.125 µg/mL | 0.857
[3], first compound 0.1 µg/mL, partner 0.25 µg/mL | 0.875
[3], first compound 0.2 µg/mL, partner 0.0625 µg/mL | 0.73
[3], first compound 0.2 µg/mL, partner 0.125 µg/mL | 0.736
[3], first compound 0.2 µg/mL, partner 0.25 µg/mL | 0.7
[3], first compound 0.4 µg/mL, partner 0.0625 µg/mL | 0.361
[3], first compound 0.4 µg/mL, partner 0.125 µg/mL | 0.242
[3], first compound 0.4 µg/mL, partner 0.25 µg/mL | 0.267

Settings | Bliss interaction score
[4] | 0.0588
[5] | -0.0882
[6] | -0.0247
[7] | -0.0744

CCC[C@@H]1C[C@@H](C(=O)N[C@@H]([C@H]2O[C@H](SC)[C@H](O)[C@@H](O)[C@H]2O)[C@@H](C)O)N(C)C1 [Lincomycin] + CC(=O)NC[C@H]1CN(c2ccc(N3CCOCC3)c(F)c2)C(=O)O1 [Linezolid]
Settings | fitness
[1], first compound 0.2 µg/mL, partner 0.105 µg/mL | 0.717
[1], first compound 0.2 µg/mL, partner 0.21 µg/mL | 0.658
[1], first compound 0.2 µg/mL, partner 0.42 µg/mL | 0.519
[1], first compound 0.215 µg/mL, partner 0.2 µg/mL | 0.716
[1], first compound 0.215 µg/mL, partner 0.4 µg/mL | 0.649
[1], first compound 0.215 µg/mL, partner 0.8 µg/mL | 0.413
[1], first compound 0.4 µg/mL, partner 0.105 µg/mL | 0.627
[1], first compound 0.4 µg/mL, partner 0.21 µg/mL | 0.601
[1], first compound 0.4 µg/mL, partner 0.42 µg/mL | 0.234
[1], first compound 0.43 µg/mL, partner 0.2 µg/mL | 0.642
[1], first compound 0.43 µg/mL, partner 0.4 µg/mL | 0.583
[1], first compound 0.43 µg/mL, partner 0.8 µg/mL | 0.306
[1], first compound 0.8 µg/mL, partner 0.105 µg/mL | 0.278
[1], first compound 0.8 µg/mL, partner 0.21 µg/mL | 0.128
[1], first compound 0.8 µg/mL, partner 0.42 µg/mL | 0.0738
[1], first compound 0.86 µg/mL, partner 0.2 µg/mL | 0.392
[1], first compound 0.86 µg/mL, partner 0.4 µg/mL | 0.311
[1], first compound 0.86 µg/mL, partner 0.8 µg/mL | 0.13
[2], first compound 0.1 µg/mL, partner 0.5 µg/mL | 0.0626
[2], first compound 0.2 µg/mL, partner 0.125 µg/mL | 0.643
[2], first compound 0.2 µg/mL, partner 0.5 µg/mL | 0.0527
[2], first compound 0.4 µg/mL, partner 0.125 µg/mL | 0.629
[2], first compound 0.4 µg/mL, partner 0.5 µg/mL | 0.0589
[3], first compound 0.1 µg/mL, partner 0.125 µg/mL | 0.824
[3], first compound 0.1 µg/mL, partner 0.25 µg/mL | 0.628
[3], first compound 0.1 µg/mL, partner 0.5 µg/mL | 0.276
[3], first compound 0.2 µg/mL, partner 0.125 µg/mL | 0.583
[3], first compound 0.2 µg/mL, partner 0.5 µg/mL | 0.192
[3], first compound 0.4 µg/mL, partner 0.125 µg/mL | 0.244
[3], first compound 0.4 µg/mL, partner 0.25 µg/mL | 0.146
[3], first compound 0.4 µg/mL, partner 0.5 µg/mL | 0.0893

fitness, one replicate
Settings | first compound 0.1 µg/mL | first compound 0.2 µg/mL | first compound 0.4 µg/mL | first compound 0.8 µg/mL | first compound 1.6 µg/mL
[2], partner 0.0625 µg/mL | – | – | 0.87 | 0.867 | 0.847
[2], partner 0.125 µg/mL | – | – | – | 0.633 | 0.638
[2], partner 0.25 µg/mL | – | – | – | 0.102 | 0.0942
[3], partner 1 µg/mL | 0.0602 | 0.0846 | 0.0423 | – | –

Settings | Bliss interaction score
[4] | -0.088
[5] | 0.0482
[6] | 0.158
[7] | -0.069

CCC[C@@H]1C[C@@H](C(=O)N[C@@H]([C@H]2O[C@H](SC)[C@H](O)[C@@H](O)[C@H]2O)[C@@H](C)O)N(C)C1 [Lincomycin] + CCN(CC)CCOC(=O)c1ccc(N)cc1 [Procaine]
fitness, [1], one replicate
Settings | first compound 0.2 µg/mL | first compound 0.4 µg/mL | first compound 0.8 µg/mL
partner 85.5 µg/mL | 0.748 | 0.673 | 0.0927
partner 171 µg/mL | 0.809 | 0.693 | 0.148
partner 342 µg/mL | 0.746 | 0.665 | 0.126

fitness
Settings | partner 85.5 µg/mL | partner 171 µg/mL | partner 342 µg/mL
[1], first compound 0.215 µg/mL | 0.812 | 0.783 | 0.784
[1], first compound 0.43 µg/mL | 0.717 | 0.695 | 0.697
[1], first compound 0.86 µg/mL | – | 0.39 | 0.495
[2], first compound 0.1 µg/mL | 0.917 | 0.932 | 0.891
[2], first compound 0.2 µg/mL | 0.899 | 0.922 | 0.862
[2], first compound 0.4 µg/mL | 0.875 | 0.875 | 0.853
[3], first compound 0.1 µg/mL | 0.844 | 0.926 | 0.863
[3], first compound 0.2 µg/mL | 0.749 | 0.837 | 0.821
[3], first compound 0.4 µg/mL | 0.391 | 0.39 | 0.363

Settings | Bliss interaction score
[4] | 0.0563
[5] | -0.0294
[6] | 0.0306
[7] | 0.0558

CCC[C@@H]1C[C@@H](C(=O)N[C@@H]([C@H]2O[C@H](SC)[C@H](O)[C@@H](O)[C@H]2O)[C@@H](C)O)N(C)C1 [Lincomycin] + CN1C2=CC=CC=C2N=C3C1=CC=CC3=O [Pyocyanin]
fitness, [1], one replicate
Settings | first compound 0.2 µg/mL | first compound 0.4 µg/mL | first compound 0.8 µg/mL
partner 0.325 µg/mL | 0.818 | 0.7 | 0.661
partner 0.65 µg/mL | 0.855 | 0.747 | 0.69

Settings | fitness
[1], first compound 0.215 µg/mL, partner 0.325 µg/mL | 0.877
[1], first compound 0.215 µg/mL, partner 0.65 µg/mL | 0.855
[1], first compound 0.215 µg/mL, partner 1.3 µg/mL | 0.741
[1], first compound 0.43 µg/mL, partner 0.325 µg/mL | 0.575
[1], first compound 0.43 µg/mL, partner 0.65 µg/mL | 0.794
[1], first compound 0.43 µg/mL, partner 1.3 µg/mL | 0.665
[1], first compound 0.86 µg/mL, partner 0.325 µg/mL | 0.535
[1], first compound 0.86 µg/mL, partner 0.65 µg/mL | 0.489
[1], first compound 0.86 µg/mL, partner 1.3 µg/mL | 0.329
[2], first compound 0.1 µg/mL, partner 1.25 µg/mL | 0.899
[2], first compound 0.1 µg/mL, partner 2.5 µg/mL | 0.823
[2], first compound 0.1 µg/mL, partner 5 µg/mL | 0.694
[2], first compound 0.2 µg/mL, partner 1.25 µg/mL | 0.862
[2], first compound 0.2 µg/mL, partner 2.5 µg/mL | 0.8
[2], first compound 0.2 µg/mL, partner 5 µg/mL | 0.668
[2], first compound 0.4 µg/mL, partner 1.25 µg/mL | 0.827
[2], first compound 0.4 µg/mL, partner 2.5 µg/mL | 0.792
[2], first compound 0.4 µg/mL, partner 5 µg/mL | 0.66
[3], first compound 0.1 µg/mL, partner 1.25 µg/mL | 0.794
[3], first compound 0.1 µg/mL, partner 2.5 µg/mL | 0.883
[3], first compound 0.1 µg/mL, partner 5 µg/mL | 0.555
[3], first compound 0.2 µg/mL, partner 1.25 µg/mL | 0.661
[3], first compound 0.2 µg/mL, partner 2.5 µg/mL | 0.613
[3], first compound 0.2 µg/mL, partner 5 µg/mL | 0.329
[3], first compound 0.4 µg/mL, partner 2.5 µg/mL | 0.195
[3], first compound 0.4 µg/mL, partner 5 µg/mL | 0.0887

Settings | Bliss interaction score
[4] | -0.229
[5] | 0.113
[6] | 0.0751
[7] | -0.1
